Columns and labels:
HIV-1LAI [1] = experiment: Inhibition of HIV infection of human PBMCs (infectious virus production, read out on LC5-RIC cells); type: cell-based; conditions: human PBMCs exposed to HIV-1LAI, mean ± SD
Procedure: To evaluate anti-HIV efficacies of test compounds in primary human target cells, stimulated PBMCs were seeded in 96-well plates at a density of 500,000 cells per well, different #7concentrations of the compound (serial dilutions) and virus inoculum (MOI of 0.5) added to the PBMCs and cultures incubated for 48 h. Infectious virus production was quantified by transferring 35 µl of supernatant from the PBMC cultures to LC5-RIC cells, seeded in black 96-well plates one day earlier. LC5-RIC cultures were then incubated for 72 h and analysed for DsRed1 reporter expression and anti-HIV activity calculated as described for the EASY-HIT assay.

HIV-1LAI [2] = experiment: EASY-HIT assay: infectious virus production by LC5-RIC reporter cells exposed to HIV-1LAI; type: cell-based
Procedure: To identify natural compounds with anti-HIV activity we screened a collection of 10,000 natural compounds: Anti-HIV activity was evaluated by determining compound effects on infectious virus production by LC5-RIC cells which are highly susceptible for HIV and contain a DsRed1-encoding reporter gene activated by HIV-infection[6]–[8]. For screening, cultures of LC5-RIC reporter cells were first exposed to virus in the presence of the compound (first-step of the assay). Subsequently, supernatants of these cultures were transferred to secondary plates with uninfected LC5-RIC cells. The fluorescent signal of the cultures in the secondary plates served as a measure of compound effects on infectious virus production.
Anti-HIV activities of compounds were profiled in LC5-RIC cells with the EASY-HIT assay as described in[6]. Briefly, LC5-RIC cells were first exposed to virus and compounds (first step of the assay). Compound effects on infectious virus production were determined by transferring aliquots of supernatants of compound-treated cultures to secondary plates and measurement of fluorescent signal intensities in secondary plates after 72 h (second step of the assay). Fluorescent signal intensities determined for compound-treated cultures were normalized to those determined for untreated virus-exposed cultures.

LC5-RIC cells = experiment: CellTiter-Glo 2.0 cell viability assay in LC5-RIC cells; type: cell-based
Procedure: The following assays were used to profile cell safety of compound treatment in HIV-exposed cultures (LC5-RIC or PBMC): (1) CellTox^TM Green Cytotoxicity Assay, Promega, measures binding of a fluorescent dye to DNA of cells with impaired membrane integrity; (2) CellTiter-Glo® 2.0 Assay, Promega, which measures the amount of ATP in viable cells after lysis using an assay with luminescence read-out. Cells were plated into black 96-well plates followed by overnight incubation at 37 °C, 5% CO2. Compounds dissolved in DMSO were screened at multiple concentrations from 0.6 to 10,000 nM at a final DMSO concentration of 0.04% followed by additional 48 h incubation. Both assays were performed according to manufacturer’s recommendations and consecutively in the above mentioned order. Cells were washed once with PBS between the assays.

HIV-1LAI [3] = experiment: Photostability of anti-HIV activity (24 h illumination vs dark, EASY-HIT read-out); type: cell-based; conditions: 24 h illumination; compounds at IC90; LC5-RIC
Procedure: Figure 1 Profiling of photostability of anti-HIV activity of Aureothin and synthetic Aureothin-derivatives. Anti-HIV activity of compound samples illuminated for 24 h were normalised to anti-HIV activity of samples of the same compound kept in the dark. Anti-HIV activity was measured by quantifying the amounts of infectious virus produced by HIV-1LAI exposed LC5-RIC cells treated with compounds at IC90 concentrations (Supplementary Table S1). […] Shown are means of at least three independent experiments with biological triplicates (n ≥ 3; m = 3) and the standard error of the mean (SEM) indicated.
LC5-RIC cells were plated as described for the EASY-HIT assay. […] Plates were incubated either in the dark or under constant illumination with a commercially available desk lamp (2X Philips Master PL-S-9W/840/2 P, 30 cm between light source and compounds) for 24 h at room temperature. For analysis of anti-HIV activity, compound samples were transferred to LC5-RIC cells and their anti-HIV activity determined by measuring compound effects on infectious virus production with the EASY-HIT assay. Relative photostability was calculated by normalizing the anti-HIV activity of the illuminated compounds to the antiviral activity of compounds kept in the dark.

[4] = system: integrated proviral HIV-1 DNA; experiment: Integrated proviral HIV-1 DNA by Alu-PCR in LC5-RIC cells; type: cell-based; conditions: HIV-1LAI, 48 h, concentrations >2x IC90, normalized to DMSO
Procedure: Quantitative analysis of integrated copies of HIV proviral DNA by Alu-PCR was performed essentially as described in[46]. Briefly, LC5-RIC cells seeded at a density of 100,000 cells per well in 12-well plates and incubated for 24 h were exposed to test compounds and HIV-1LAI virus inoculum at an MOI of 0.5 and incubated for further 48 h at 37 °C, 5% CO2. Subsequently, cells were harvested and genomic DNA (gDNA) was extracted using the QIAamp DNA Mini Kit (QIAGEN) according to the manufacturer’s protocol. The relative amount of integrated proviral HIV-1 DNA was determined by two-step Alu-PCR[46]. The relative amounts of integrated proviral HIV-1 DNA in treated versus untreated samples were calculated by the 2^(−ΔΔCt) method, with ΔCT values representing CT (HIV) - CT (β-globin) for each sample and ΔΔCT values representing values of treated samples normalized to untreated samples.

HIV-2 = system: HIV-2; parameters: method as in PMID 22293827, PMID 10465070; conditions: virus intrinsically resistant; cited from earlier work
[5] = Human immunodeficiency virus 1, LC5-RIC cells exposed to HIV-1LAI, infectious virus production, mean ± SD, read-out: IC50, half maximal inhibitory concentration
[6] = Human immunodeficiency virus 1, read-out: IC50, half maximal inhibitory concentration

Row | Compound | IC50 (HIV-1LAI [2]; [5]) | reduction of levels of integrated proviral DNA [4] | activity against HIV-2 (HIV-2) | IC50 (HIV-1LAI [2]; [6]) | further results
1 | COc1oc([C@H]2C/C(=C/C(C)=C/c3ccc([N+](=O)[O-])cc3)CO2)c(C)c(=O)c1C [compound 1, Aureothin] |  |  |  |  | IC50 (HIV-1LAI [1]; read-out: IC50, half maximal HIV-inhibitory concentration): 11.7 ± 1.37 nM; IC90 (HIV-1LAI [1]; read-out: IC90, 90% HIV-inhibitory concentration): 45 ± 3.33 nM; IC50 (HIV-1LAI [2]; LC5-RIC cells exposed to HIV-1LAI, infectious virus production, mean ± SD, read-out: IC50, half maximal inhibitory concentration): 5.3 ± 0.4 nM; IC90 (HIV-1LAI [2]; read-out: IC90, 90% inhibitory concentration, LC5-RIC cells exposed to HIV-1LAI, infectious virus production, mean ± SD): 26.8 ± 2.54 nM; CC50 (LC5-RIC cells): > 10 µM; loss of anti-HIV-activity compared to the non-illuminated controls (HIV-1LAI [3]): ≥ 50%
2 | COc1oc([C@H]2C/C(=C/C(C)=C/C(C)=C/C(C)=C/c3ccc([N+](=O)[O-])cc3)CO2)c(C)c(=O)c1C [Neoaureothin] | 2.2 ± 0.06 nM |  |  |  | 
3 | O=C1Nc2ccc(Cl)cc2[C@@](C#CC2CC2)(C(F)(F)F)O1 [Efavirenz] | ~1 nM | > 90% | ineffective against HIV-2 |  | 
4 | Enfuvirtide |  |  | ineffective against HIV-2 |  | 
5 | CC(C)(C)NC(=O)[C@@H]1C[C@@H]2CCCC[C@@H]2CN1C[C@@H](O)[C@H](Cc1ccccc1)NC(=O)[C@H](CC(N)=O)NC(=O)c1ccc2ccccc2n1 [Saquinavir] |  |  |  | ~10 nM | 
6 | C[C@@H]1CCO[C@H]2Cn3cc(C(=O)NCc4ccc(F)cc4F)c(=O)c(O)c3C(=O)N12 [Dolutegravir] |  | > 90% |  | ~1 nM | 

Reference: article PMC6987146, “Potent inhibition of HIV replication in primary human cells by novel synthetic polyketides inspired by Aureothin” (Scientific Reports, 2020)
